Structures can show the parent of a compound that is named as a salt. Values belong to the molecule of their own block, whether it stands above or below them.
Columns and labels:
Format in all cases: cell-based, Human
[1] = tested on: KELLY; assay: Drug interactions assay (Chou-Talalay CI, DRI); conditions: topotecan dose axis, 48 hours
Procedure: (§1) Drug interactions between XIAP-specific antagonist A4 and vincristine or topotecan were determined using the combination index (CI) by Chou and Talalay which was established on the basis of the mass-action law principle to derive the median-effect equation ([25]). […] Cell viability was measured and CI and dose reduction index (DRI) values were quantified using the CompuSyn software by Chou–Talalay. Areas under the dose–response curves were calculated using the trapezoidal method and compared using paired t test.
(§2) For treatment of high-risk neuroblastoma, current standard-of-care utilizes intensive multimodal therapy involving combinations of multiple cytotoxic agents. […] To analyze potential drug interactions, treatment of BE(2)-C and KELLY cells with A4 in combination with either vincristine or topotecan was examined. Using Chou–Talalay method, the drug interaction effect/type determined by the drug combination (CI) index is as follows: CI <1 (synergistic effect); CI = 1 (additive effect); CI >1 (antagonistic effect).
(§3) CI was generated using CompuSyn software by Chou–Talalay ([25]). CI60–90 represents the average CI at 60%–90% cell death. CI <1 denotes synergistic effect; CI = 1 denotes addictive effect and CI >1 denotes antagonistic effect. […] DRI was generated using CompuSyn software by Chou–Talalay. DRI60–90 represents the average DRI at 60%–90% cell death. DRI <1 denotes unfavorable dose reduction and DRI >1 denotes favorable dose reduction.

[2] = tested on: BE(2)-C; assay: Drug interactions assay (Chou-Talalay CI, DRI); conditions: topotecan dose axis, 48 hours
Procedure: as §1, §2, §3

[3] = tested on: THLE3 (liver origin); assay: RealTime-Glo MT cell viability assay, noncancerous normal cells; conditions: Homo sapiens
Procedure: (§4) Cell viability was measured in real time using RealTime-Glo MT Cell Viability Assay as according to manufacturer's instructions from Promega. Cells were seeded at 1 × 10^4 cells per well and treated with a range of doses of indicated antagonists, followed by continuous bioluminescence reading every 24 hours for 3 days using luminescent plate reader, Varioskan (SkanIT software). IC50 was determined using GraphPad Prism software.
(§5) To determine their efficacy in neuroblastoma, a panel of neuroblastoma cell lines including neuroblastoma patient-derived cell lines and noncancerous normal tissue-derived cell lines were treated with increasing doses of each antagonist (0–100 µmol/L), followed by real-time measurement of cell viability every 24 for 72 hours.
(§6) To evaluate this, noncancerous normal tissue-derived cell lines THLE3 and HS5 were utilized to evaluate toxicity and tolerability.

[4] = tested on: HS5 (bone marrow origin); assay: as above; conditions: Homo sapiens
Procedure: as §4, §5, §6

[5] = tested on: NLF; assay: RealTime-Glo MT cell viability assay; conditions: Homo sapiens
Procedure: as §4, §5

[6] = tested on: CHP212; assay: RealTime-Glo MT cell viability assay; conditions: Homo sapiens, CHP-212
Procedure: as §4, §5

[7] = tested on: SK-N-AS; assay: RealTime-Glo MT cell viability assay; conditions: Homo sapiens
Procedure: as §4, §5

[8] = tested on: KELLY; assay: RealTime-Glo MT cell viability assay; conditions: Homo sapiens
Procedure: as §4, §5

[9] = tested on: BE(2)-C; assay: RealTime-Glo MT cell viability assay; conditions: Homo sapiens
Procedure: as §4, §5

[10] = tested on: NBL27-0218A patient-derived neuroblastoma cells; assay: RealTime-Glo MT cell viability assay; conditions: Homo sapiens, Neuroblastoma cell
Procedure: as §4, §5

[11] = tested on: SK-N-SH; assay: RealTime-Glo MT cell viability assay; conditions: Homo sapiens
Procedure: as §4, §5

[12] = tested on: NBL16-0118 patient-derived neuroblastoma cells; assay: RealTime-Glo MT cell viability assay; conditions: Homo sapiens, Neuroblastoma cell
Procedure: as §4, §5

[13] = tested on: IMR-32; assay: RealTime-Glo MT cell viability assay; conditions: Homo sapiens
Procedure: as §4, §5

[14] = tested on: NBL01-1116 patient-derived neuroblastoma cells; assay: RealTime-Glo MT cell viability assay; conditions: Homo sapiens, Neuroblastoma cell
Procedure: as §4, §5

[15] = tested on: NBL-07-0317 patient-derived neuroblastoma cells; assay: RealTime-Glo MT cell viability assay; conditions: Homo sapiens, Neuroblastoma cell
Procedure: as §4, §5

[16] = tested on: NB1; assay: RealTime-Glo MT cell viability assay; conditions: Homo sapiens
Procedure: as §4, §5

[17] = tested on: THLE3 and HS5; assay: Toxicity and tolerability in noncancerous normal tissue-derived cell lines; conditions: THLE3 and HS5 versus neuroblastoma cells
Procedure: as §4
To evaluate this, noncancerous normal tissue-derived cell lines THLE3 and HS5 were utilized to evaluate toxicity and tolerability. […] On the basis of their overall potency and specificity toward neuroblastoma cells over noncancerous normal cells, A4, B3, and BV6 were selected as the more efficacious antagonists to be studied further in subsequent experiments (Fig. 2A).

[18] = tested on: neuroblastoma cells across the panel of cell lines; assay: Cell viability, IC50 range across the panel; conditions: Homo sapiens, Neuroblastoma cell; range over cell lines, doses 0–100 µmol/L, viability every 24 for 72 hours; read-out: IC50 against neuroblastoma cells across the panel of cell lines
Procedure: as §4, with “([…]” for “(SkanIT”, “software. To determine their efficacy in neuroblastoma, a panel of neuroblastoma cell lines including neuroblastoma patient-derived cell lines and noncancerous normal tissue-derived cell lines were treated with increasing doses of each antagonist (0-100 μmol/L), followed by real-time measurement of cell viability every 24 for 72 hours. […] Supplementary Table S2; Fig. 2A). […] Fig. 2A).” for “software.”

Structure (SMILES): CC[C@@]1(O)C(=O)OCc2c1cc1n(c2=O)Cc2cc3c(CN(C)C)c(O)ccc3nc2-1 [Topotecan, Topotecan hydrochloride]
AUC of dose–response curve [1]: 352.1±28.9 nM* luminescence | AUC of dose–response curve [2]: 164.6±8.6 nM* luminescence

IC50 ([7]; 24 hours): 33.2 µM | IC50 ([7]; 48 hours): 26.9 µM | IC50 ([7]; 72 hours): 22.3 µM | IC50 ([10]; 24 hours): 32.8 µM | IC50 ([10]; 48 hours): 30.4 µM | IC50 ([10]; 72 hours): 28.4 µM | IC50 ([11]; 24 hours): 54.1 µM | IC50 ([11]; 48 hours): 40 µM | IC50 ([11]; 72 hours): 33.5 µM | IC50 ([12]; NBL16-0118, 24 hours): 35 µM | IC50 ([12]; NBL16-0118, 48 hours): 32 µM | IC50 ([12]; NBL16-0118, 72 hours): 30 µM | IC50 ([14]; NBL01-1116, 24 hours): 40 µM | IC50 ([14]; NBL01-1116, 48 hours): 38 µM | IC50 ([14]; NBL01-1116, 72 hours): 38 µM | IC50 ([15]; NBL-07-0317, 24 hours): 33.5 µM | IC50 ([15]; NBL-07-0317, 48 hours): 33 µM | IC50 ([15]; NBL-07-0317, 72 hours): 32 µM | IC50 [18]: 20 to 60 µM
Structure (SMILES): CN[C@@H](C)C(=O)N[C@H](C(=O)N1CCC[C@H]1C(=O)Nc1sc(-c2ncco2)nc1-c1ccccc1)C1CCCCC1 [CUDC-427]
IC50 ([3]; THLE3, 24 hours): 40.2 µM | IC50 ([3]; THLE3, 48 hours): 28.8 µM | IC50 ([3]; THLE3, 72 hours): 29.5 µM | IC50 ([4]; HS5, 24 hours): 29.9 µM | IC50 ([4]; HS5, 48 hours): 26.5 µM | IC50 ([4]; HS5, 72 hours): 23.8 µM | IC50 ([5]; 24 hours): 45 µM | IC50 ([5]; 48 hours): 38.6 µM | IC50 ([5]; 72 hours): 30.2 µM | IC50 ([6]; CHP212, 24 hours): 57.6 µM | IC50 ([6]; CHP212, 48 hours): 50.1 µM | IC50 ([6]; CHP212, 72 hours): 50 µM | IC50 ([8]; 24 hours): 32.5 µM | IC50 ([8]; 48 hours): 29.5 µM | IC50 ([8]; 72 hours): 26 µM | IC50 ([9]; 24 hours): 64.9 µM | IC50 ([9]; 48 hours): 60.9 µM | IC50 ([9]; 72 hours): 55.6 µM | IC50 ([13]; IMR-32, 24 hours): 59 µM | IC50 ([13]; IMR-32, 48 hours): 46.5 µM | IC50 ([13]; IMR-32, 72 hours): 40.6 µM | IC50 ([16]; NB1, 24 hours): 42 µM | IC50 ([16]; NB1, 48 hours): 38.1 µM | IC50 ([16]; NB1, 72 hours): 36.9 µM | toxicity to noncancerous cells [17]: more toxic toward noncancerous cells than neuroblastoma cells
